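Results reflect a 48-hour exposure of cells in 96-well plates to compound at five concentrations. GI50 is the concentration that inhibits growth by half. TGI is the concentration that stops growth completely.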
Tests used:
Test in all cases: growth of human tumour cells (NCI), 48 h
MOLT-4 leukemia = tested on: MOLT-4 leukemia
OVCAR-5 ovarian = tested on: OVCAR-5 ovarian
LXFL 529 NSCLC = tested on: LXFL 529 NSCLC
A549 NSCLC = tested on: A549 NSCLC
KM12 colon = tested on: KM12 colon
786-0 renal = tested on: 786-0 renal
RPMI-8226 leukemia = tested on: RPMI-8226 leukemia
SK-OV-3 ovarian = tested on: SK-OV-3 ovarian
SK-MEL-5 melanoma = tested on: SK-MEL-5 melanoma
EKVX NSCLC = tested on: EKVX NSCLC

SMILES	TGI (MOLT-4 leukemia) [µM]	TGI (OVCAR-5 ovarian) [µM]	TGI (LXFL 529 NSCLC) [µM]	TGI (A549 NSCLC) [µM]	TGI (KM12 colon) [µM]	TGI (786-0 renal) [µM]	TGI (RPMI-8226 leukemia) [µM]	TGI (SK-OV-3 ovarian) [µM]	TGI (SK-MEL-5 melanoma) [µM]	TGI (EKVX NSCLC) [µM]	GI50 (MOLT-4 leukemia) [µM]	GI50 (OVCAR-5 ovarian) [µM]	GI50 (LXFL 529 NSCLC) [µM]	GI50 (A549 NSCLC) [µM]	GI50 (KM12 colon) [µM]	GI50 (786-0 renal) [µM]	GI50 (RPMI-8226 leukemia) [µM]	GI50 (SK-OV-3 ovarian) [µM]	GI50 (SK-MEL-5 melanoma) [µM]	GI50 (EKVX NSCLC) [µM]
CC(=O)NNc1nc(C)c(C(=O)NNC(=O)C(=O)Nc2ccc(C)c(C)c2)s1	> 100	> 100	> 100	> 100	> 100	> 100	> 100	> 100	> 100	> 100										
CCOP(=O)(CCP(=O)(OCC)OCC)OCC.C[CH2][Sn]([Cl])([Cl])[CH2]C	> 100	> 100	22.8	> 100	> 100	50.2	67.2	> 100	> 86.7	> 100	39.9	72	10.7	> 100	> 100	21.7	22.7	99.3	36.4	> 100
NC(=O)c1ccccc1NC(=O)C(=O)C(C(=O)c1ccc2ccccc2c1)C1OC(=O)c2ccccc21 (stereo not given)	23.7	67.1	21.9	50.5	49	19.9	48.1	75.2	24.6	75.6										
O=C(CCc1nnc2s/c(=C\c3ccccc3)c(=O)n12)Nc1cc(Cl)ccc1Cl	> 100	> 100	> 100	> 100	> 100	> 100	> 100	> 100	> 100	> 100										
COc1ccc(/C=C2/C(=O)N(C(=O)c3ccccc3O)N=C2C)cc1OC	> 100	> 100	> 100	> 100	> 100	> 100	> 100	> 100	24.6	> 100										
OC(c1ccccc1)(c1ccccc1)c1ccccn1	> 100	> 100	> 100	> 100	> 100	> 100	> 100	> 100	> 100	> 100										
N=C(N)n1ncc(Cl)c(Cl)c1=O	4.64	30.7	3.31	33.6	20.2	7.02	7.55	32	15.2	5.07										
O=c1[nH]c(=S)[nH]c2c1sc(=S)n2-c1ccccc1	> 100	> 100	> 100	> 100	> 100	> 100	> 100	> 100	> 100	> 100										
CC(=O)CC(=O)CCCC(=O)Nc1ccc(Cl)cc1C	> 100	> 100	> 100	> 100	> 100	> 100	> 100	> 100	> 100	> 100										
CC1=C(C(=O)Nc2cccc(C(F)(F)F)c2)C(c2ccc(O)cc2)C(C(=O)Nc2cccc(C(F)(F)F)c2)=C(C)N1	47	72.6	55.3	> 100	33.2	35.8	41.2	83.4	33.6	58.6										
CCOC(=O)C1=C(Nc2ccccc2)OC/C1=N\NC(=O)Cc1ccccc1	> 50	> 50	> 50	> 50	> 50	> 50	> 50	> 50	> 50	> 50										
